From patent US8664257B2, “Oxygen-substituted 3-heteroaroylamino-propionic acid derivatives and their use as pharmaceuticals” (Sanofi, priority 2010, dated 2014)

The compounds below were run against T1, Recombinant human cathepsin A (Homo sapiens, UniProt P10619) (assay: Cathepsin A inhibitory activity). Conditions: pharmacological test "Cathepsin A inhibitory activity"; IC50 given as class A/B/C; read-out: Activity (2): Cathepsin A inhibitory activity, IC50 class.
T1 construct: Recombinant human cathepsin A (residues 29-480, with a C-terminal 10-His tag); 10-His (C); purchased R&D Systems 1049-SE
T1 sequence (P10619 29-312 limits assumed): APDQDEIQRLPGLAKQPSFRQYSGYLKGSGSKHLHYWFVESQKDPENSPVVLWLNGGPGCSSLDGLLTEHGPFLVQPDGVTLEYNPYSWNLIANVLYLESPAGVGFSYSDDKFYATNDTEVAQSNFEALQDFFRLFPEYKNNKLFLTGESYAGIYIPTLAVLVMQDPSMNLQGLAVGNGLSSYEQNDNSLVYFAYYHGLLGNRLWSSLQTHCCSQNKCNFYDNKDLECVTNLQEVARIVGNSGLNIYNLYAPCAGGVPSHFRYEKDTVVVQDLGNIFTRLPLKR
T1 sequence (P10619 327-480 limits assumed): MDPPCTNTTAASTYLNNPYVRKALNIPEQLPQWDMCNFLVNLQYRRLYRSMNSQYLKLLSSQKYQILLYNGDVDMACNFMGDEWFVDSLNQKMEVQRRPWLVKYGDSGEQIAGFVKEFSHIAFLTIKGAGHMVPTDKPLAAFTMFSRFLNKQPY
Format: biochemical
Procedure, shortened: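 Human cathepsin A (res. 29-480, C-His10) pre-activated with cathepsin L (MES pH 6.0, DTT, 15 min, 37 °C; quenched with 10 μM E-64). Enzyme (833 ng/ml) preincubated 15 min RT with compound in MES pH 5.5/DTT, then 2 μM Bodipy FL-bradykinin for 15 min RT. Capillary electrophoresis product/substrate peak areas; IC50 from % inhibition.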

Row | SMILES | IC50
1 | O=C(O)CC(NC(=O)c1cc(O)n(-c2cccc(Cl)c2)n1)c1ccccc1F (stereo not shown) [Example 254] | 100 to 1000 nM
2 | COc1cccc([C@H](CC(=O)O)NC(=O)c2cc(O)n(-c3ccccc3)n2)c1 [Example 165] | 1000 to 30000 nM
3 | O=C(O)CC(NC(=O)c1cc(O)n(-c2ccccc2)n1)c1cccc(Cl)c1Cl (stereo not shown) [Example 168] | 100 to 1000 nM
4 | O=C(O)CC(NC(=O)c1cc(O)n(-c2ccccc2F)n1)c1ccccc1F (stereo not shown) [Example 233] | 100 to 1000 nM
5 | COc1ccc(C(CC(=O)O)NC(=O)c2cc(O)n(-c3ccccc3F)n2)c(OC)c1 (stereo not shown) [Example 232] | 100 to 1000 nM
6 | N#Cc1cccc([C@H](CC(=O)O)NC(=O)c2cc(O)n(-c3ccccc3F)n2)c1 [Example 230] | 100 to 1000 nM
7 | O=C(O)CC(NC(=O)c1cc(O)n(-c2ccccc2F)n1)c1ccc(-c2ccccc2)cc1 (stereo not shown) [Example 150] | < 100 nM
8 | O=C(O)C[C@H](NC(=O)c1cc(O)n(-c2ccc(F)cc2F)n1)c1ccc(Cl)cc1 [Example 200] | 100 to 1000 nM
9 | Cc1ccc(C(CC(=O)O)NC(=O)c2cc(O)n(-c3ccc(F)cc3F)n2)c(C)c1 (stereo not shown) [Example 195] | 100 to 1000 nM

Same assay, conditions: read-out: Activity (2): Cathepsin A inhibitory activity (IC50 class)

Row | SMILES | IC50
10 | COc1cc(C(=O)N[C@@H](CC(=O)O)c2ccccc2C)nn1-c1cccc(F)c1 [Example 609] | < 100 nM
11 | Cc1ccccc1[C@H](CC(=O)O)NC(=O)c1cc(OC[C@H]2CCC(=O)N2)n(-c2ccccc2F)n1 [Example 652] | < 100 nM
12 | COCCOc1cc(C(=O)N[C@@H](CC(=O)O)c2ccccc2C)nn1-c1ccccc1F [Example 617] | < 100 nM
13 | Cc1ccccc1[C@H](CC(=O)O)NC(=O)c1cc(OCC2CCOC2)n(-c2ccccc2F)n1 (stereo partly shown) [Example 650] | < 100 nM
14 | CC(C)[C@@](C)(O)COc1cc(C(=O)N[C@@H](CC(=O)O)c2cccc(Cl)c2)nn1-c1ccccc1F [Example 767] | < 100 nM
15 | CCOc1cc(C(=O)NC(CC(=O)O)c2ccc(OC)cc2C)nn1-c1ccccc1F (stereo not shown) [Example 714] | < 100 nM
16 | CCOc1cc(C(=O)N[C@@H](CC(=O)O)c2ccccc2Cl)nn1-c1ccccc1F [Example 717] | < 100 nM
17 | COc1cc(C(=O)N[C@@H](CC(=O)O)c2ccc(C(F)(F)F)cc2)nn1-c1ccccc1F [Example 674] | < 100 nM
18 | O=C(O)C[C@H](NC(=O)c1cc(OCC2CC2)n(-c2ccccc2F)n1)c1cccc(Cl)c1Cl [Example 702] | < 100 nM
19 | COc1ccc(C(CC(=O)O)NC(=O)c2cc(OCC3CC3)n(-c3ccccc3F)n2)c(C)c1 (stereo not shown) [Example 692] | < 100 nM
20 | O=C(O)CC(NC(=O)c1cc(O)n(-c2ccccc2F)n1)c1ccc(N2CCCC2)cc1 (stereo not shown) [Example 566, 3-{[1-(2-Fluoro-phenyl)-5-hydroxy-1H-pyrazole-3-carbonyl]-amino}-3-(4-pyrrolidin-1-yl-phenyl)-propionic acid] | 1000 to 30000 nM
21 | Cc1ccccc1[C@H](CC(=O)O)NC(=O)c1cc(OCCc2c(C)noc2C)n(-c2ccccc2F)n1 [Example 628] | < 100 nM

Same assay, conditions: read-out: Activity (2): Cathepsin A inhibitory activity, IC50 class

Row | IC50 | SMILES
22 | 1000 to 30000 nM | O=C(O)CC(NC(=O)c1cc(O)n(-c2cccc(F)c2)n1)c1ccc(-c2ccc(F)cc2)cc1 (stereo not shown) [Example 333]
23 | 100 to 1000 nM | O=C(O)C[C@H](NC(=O)c1cc(O)n(-c2ccc(F)cc2)n1)c1cccc(Cl)c1Cl [Example 347]
24 | 100 to 1000 nM | O=C(O)CC(NC(=O)c1cc(O)n(-c2ccc(F)cc2)n1)c1cccc(Cl)c1 (stereo not shown) [Example 338]

Continued, compound first:

Row | SMILES | IC50
25 | COc1cccc([C@H](CC(=O)O)NC(=O)c2cc(OCC(C)(O)C(C)C)n(-c3ccccc3F)n2)c1 (stereo partly drawn) [Example 802, (S)-3-{[1-(2-Fluoro-phenyl)-5-(2-hydroxy-2,3-dimethyl-butoxy)-1H-pyrazole-3-carbonyl]-amino}-3-(3-methoxy-phenyl)-propionic acid] | < 100 nM
26 | CC(C)(C)[C@@H](O)COc1cc(C(=O)N[C@@H](CC(=O)O)c2cccc(Cl)c2)nn1-c1ccccc1F [Example 795, (S)-3-(3-Chloro-phenyl)-3-{[1-(2-fluoro-phenyl)-5-((R)-2-hydroxy-3,3-dimethyl-butoxy)-1H-pyrazole-3-carbonyl]-amino}-propionic acid] | < 100 nM
27 | Cc1ccc(C)c(-n2nc(C(=O)NC(CC(=O)O)c3ccc(F)c(F)c3)cc2O)c1 (stereo not shown) [Example 47] | 1000 to 30000 nM
28 | Cc1ccc(C)c(-n2nc(C(=O)NC3(CC(=O)O)CCCC3)cc2O)c1 [Example 42] | 1000 to 30000 nM
29 | O=C(O)C[C@H](NC(=O)c1cc(O)n(-c2ccc(Cl)cc2)n1)c1cccc(Cl)c1Cl [Example 277] | 100 to 1000 nM
30 | O=C(O)CC(CCc1ccccc1)NC(=O)c1cc(O)n(-c2ccccc2)n1 (stereo not shown) [Example 15] | 1000 to 30000 nM
31 | Cc1ccc(C)c(-n2nc(C(=O)NC(CC(=O)O)c3ccc(-c4ccccc4)cc3)cc2O)c1 (stereo not shown) [Example 55] | 100 to 1000 nM
32 | CC(C)(C)[C@](C)(O)COc1cc(C(=O)NC(CC(=O)O)Cc2ccccc2)nn1-c1ccccc1F (stereo partly drawn) [Example 818, 3-{[1-(2-Fluoro-phenyl)-5-((S)-2-hydroxy-2,3,3-trimethyl-butoxy)-1H-pyrazole-3-carbonyl]-amino}-4-phenyl-butyric acid] | < 100 nM
33 | COc1cccc(C(CC(=O)O)NC(=O)c2cc(O)n(-c3cc(C)ccc3C)n2)c1 (stereo not shown) [Example 28] | 1000 to 30000 nM
34 | O=C(O)CC(NC(=O)c1cc(O)n(-c2ccccc2Cl)n1)c1ccc(-c2ccc(F)cc2)cc1 (stereo not shown) [Example 115] | < 100 nM

Same assay, conditions: recombinant human cathepsin A 833 ng/ml, Bodipy FL-labeled bradykinin 2 μM, pH 5.5; read-out: CATH-A IC50

Row | SMILES | IC50
35 | COc1ccc(F)cc1C(CC(=O)O)NC(=O)c1cc(O)n(-c2ccccc2)n1 (stereo not shown) [Example 498, 3-(5-Fluoro-2-methoxy-phenyl)-3-[(5-hydroxy-1-phenyl-1H-pyrazole-3-carbonyl)-amino]-propionic acid] | 143 nM
36 | COc1cccc(F)c1C(CC(=O)O)NC(=O)c1cc(O)n(-c2ccccc2)n1 (stereo not shown) [Example 441, 3-(2-Fluoro-6-methoxy-phenyl)-3-[(5-hydroxy-1-phenyl-1H-pyrazole-3-carbonyl)-amino]-propionic acid] | 513 nM
37 | O=C(O)CC(NC(=O)c1cc(O)n(-c2cccc(Cl)c2)n1)c1cc(Cl)ccc1Cl (stereo not shown) [Example 511, 3-{[1-(3-Chloro-phenyl)-5-hydroxy-1H-pyrazole-3-carbonyl]-amino}-3-(2,5-dichloro-phenyl)-propionic acid] | 102 nM
38 | O=C(O)CC(NC(=O)c1cc(O)n(-c2ccccc2F)n1)c1ccc(N2CCCC2)cc1 (stereo not shown) [Example 566, 3-{[1-(2-Fluoro-phenyl)-5-hydroxy-1H-pyrazole-3-carbonyl]-amino}-3-(4-pyrrolidin-1-yl-phenyl)-propionic acid] | 2990 nM
39 | O=C(O)CC(NC(=O)c1cc(O)n(-c2ccccc2Cl)n1)c1cc(Cl)ccc1Cl (stereo not shown) [Example 462, 3-{[1-(2-Chloro-phenyl)-5-hydroxy-1H-pyrazole-3-carbonyl]-amino}-3-(2,5-dichloro-phenyl)-propionic acid] | 80.4 nM

Same assay, conditions: recombinant human cathepsin A; read-out: Activity (2): Cathepsin A inhibitory activity, IC50 class

Row | SMILES | IC50
40 | O=C(O)CC(NC(=O)c1cc(O)n(-c2cccc(F)c2)n1)c1ccc(-c2ccccn2)cc1 (stereo not shown) [Example 521] | 100 to 1000 nM
41 | O=C(O)CC(NC(=O)c1cc(O)n(-c2cccc(F)c2)n1)c1cc(F)ccc1F (stereo not shown) [Example 485] | 100 to 1000 nM
42 | O=C(O)C[C@H](NC(=O)c1cc(O)n(-c2ccccc2F)n1)c1ccccc1Cl [Example 519] | 100 to 1000 nM
43 | COc1ccc([C@H](CC(=O)O)NC(=O)c2cc(O)n(-c3cccc(Cl)c3)n2)cc1 [Example 409] | 1000 to 30000 nM
44 | COc1ccc(F)cc1C(CC(=O)O)NC(=O)c1cc(O)n(-c2ccccc2)n1 (stereo not shown) [Example 498, 3-(5-Fluoro-2-methoxy-phenyl)-3-[(5-hydroxy-1-phenyl-1H-pyrazole-3-carbonyl)-amino]-propionic acid] | 100 to 1000 nM
45 | COc1cccc(F)c1C(CC(=O)O)NC(=O)c1cc(O)n(-c2ccccc2)n1 (stereo not shown) [Example 441, 3-(2-Fluoro-6-methoxy-phenyl)-3-[(5-hydroxy-1-phenyl-1H-pyrazole-3-carbonyl)-amino]-propionic acid] | 100 to 1000 nM
46 | O=C(O)CC(NC(=O)c1cc(O)n(-c2cccc(Cl)c2)n1)c1cc(Cl)ccc1Cl (stereo not shown) [Example 511, 3-{[1-(3-Chloro-phenyl)-5-hydroxy-1H-pyrazole-3-carbonyl]-amino}-3-(2,5-dichloro-phenyl)-propionic acid] | 100 to 1000 nM
47 | O=C(O)CC(NC(=O)c1cc(O)n(-c2ccc(F)cc2)n1)c1cc(F)ccc1Cl (stereo not shown) [Example 524, 3-(2-Chloro-5-fluoro-phenyl)-3-{[1-(4-fluoro-phenyl)-5-hydroxy-1H-pyrazole-3-carbonyl]-amino}-propionic acid] | 100 to 1000 nM
48 | O=C(O)CC(NC(=O)c1cc(O)n(-c2ccccc2Cl)n1)c1cc(Cl)ccc1Cl (stereo not shown) [Example 462, 3-{[1-(2-Chloro-phenyl)-5-hydroxy-1H-pyrazole-3-carbonyl]-amino}-3-(2,5-dichloro-phenyl)-propionic acid] | < 100 nM
49 | O=C(O)CC(NC(=O)c1cc(O)n(-c2ccccc2F)n1)c1ccc(Cl)c(Cl)c1 (stereo not shown) [Example 407] | 100 to 1000 nM
